Test results from the supplement of paper PMC10331698.
± gives the standard deviation of the averaged measurements.

How the values were obtained:
Experiment in all cases: level (log10 ratio to DMSO vehicle control); higher = higher biomarker level / cell amount than vehicle control
Details in all cases: in DMSO
Perfluorooctanamidine = compound: N=C(N)C(F)(F)C(F)(F)C(F)(F)C(F)(F)C(F)(F)C(F)(F)C(F)(F)F [Perfluorooctanamidine]
Protocol: (§1)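 BioMAP Diversity Plus panel of 12 human primary cell co-culture systems (3C, 4H, LPS, SAg, BT, BF4T, BE3C, CASM3C, HDF3CGF, KF3CT, MyoF, Mphg). Compounds were added 1 h before stimulation and left for 24 h (MyoF 48 h; BT 72 h for soluble read-outs or 6 d for IgG). Biomarkers were read by ELISA, cytotoxicity by SRB, PBMC viability and proliferation by Alamar Blue. Each well value was divided by the mean of 8 DMSO control wells on the same plate and log10 transformed; duplicate blinded samples were tested at 4 concentrations.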

[1] = compound: O=C(O)C(F)(F)C(F)(F)C(F)(F)C(F)(F)C(F)(F)C(F)(F)C(F)(F)C(F)(F)C(F)(F)C(F)(F)C(F)(F)C(F)(F)F [Perfluorotridecanoic acid]
Protocol: as §1

[2] = compound: O=P(O)(O)CCC(F)(F)C(F)(F)C(F)(F)C(F)(F)C(F)(F)C(F)(F)C(F)(F)C(F)(F)F [((Perfluorooctyl)ethyl)phosphonic acid]
Protocol: as §1

Azathioprine = compound: Cn1cnc([N+](=O)[O-])c1Sc1ncnc2[nH]cnc12 [Azathioprine]
Protocol: as §1

[3] = compound: OCC(F)(F)C(F)(F)C(F)(F)C(F)(F)C(F)(F)C(F)F [1H,1H,7H-Dodecafluoro-1-heptanol]
Protocol: as §1

[4] = compound: O=C(O)CCC(F)(F)C(F)(F)C(F)(F)F [3:3 Fluorotelomer carboxylic acid]
Protocol: as §1

Test System	level (log10) (Perfluorooctanamidine; 6700 nM)	level (log10) (Perfluorooctanamidine; 20000 nM)	level (log10) (Perfluorooctanamidine; 60000 nM)	level (log10) ([1]; 1500 nM)	level (log10) ([1]; 4400 nM)	level (log10) ([1]; 13000 nM)	level (log10) ([1]; 40000 nM)	level (log10) ([2]; 6700 nM)	level (log10) ([2]; 20000 nM)	level (log10) ([2]; 60000 nM)	level (log10) (Azathioprine; 1400 nM)	level (log10) (Azathioprine; 4200 nM)	level (log10) (Azathioprine; 13000 nM)	level (log10) (Azathioprine; 38000 nM)	level (log10) ([3]; 6700 nM)	level (log10) ([3]; 20000 nM)	level (log10) ([3]; 60000 nM)	level (log10) ([4]; 6700 nM)	level (log10) ([4]; 20000 nM)	level (log10) ([4]; 60000 nM)
BT:sIL-17F	-0.0225 ± 0.071	-0.209 ± 0.023	-0.112	-0.0115 ± 0.1	-0.02 ± 0.048	0.0775 ± 0.067	0.004 ± 0.09	-0.094 ± 0.081	0.035 ± 0.025	-0.0045 ± 0.088	-0.0825 ± 0.079	-0.041 ± 0.12	-0.092 ± 0.054	-0.254 ± 0.025	-0.104 ± 0.2	-0.0695 ± 0.07	-0.061 ± 0.064	-0.003 ± 0.081	0.035 ± 0.081	0.059 ± 0.048
BT:sTNF-alpha	0.102 ± 0.099	0.0345 ± 0.084	0.01	0.0475 ± 0.064	0.0075 ± 0.033	-0.054 ± 0.096	-0.05 ± 0.067	-0.019 ± 0.013	-0.0175 ± 0.15	-0.211 ± 0.39	0.0225 ± 0.22	-0.168 ± 0.11	-0.167 ± 0.017	-0.782 ± 0.077	-0.01 ± 0.31	0.0815 ± 0.039	-0.0155 ± 0.15	0.152 ± 0.077	0.0025 ± 0.098	0.158 ± 0.018
LPS:CCL2/MCP-1	-0.0005 ± 0.021	-0.003 ± 0.0028	-0.023	0.005 ± 0.071	0.0315 ± 0.032	0.0145 ± 0.0078	0.0155 ± 0.029	-0.0075 ± 0.005	-0.0255 ± 0.0092	-0.046 ± 0.016	0.019 ± 0.055	0.011 ± 0.0042	0.03 ± 0.023	-0.01 ± 0.0014	0.002 ± 0.0014	-0.0125 ± 0.0078	-0.0005 ± 0.018	0.001 ± 0.023	-0.0025 ± 0.015	0.0135 ± 0.013
LPS:CD40	-0.0145 ± 0.04	-0.0525 ± 0.021	-0.148	0.015 ± 0.092	-0.0215 ± 0.17	-0.032 ± 0.11	-0.03 ± 0.092	-0.042 ± 0.041	-0.0535 ± 0.00071	-0.148 ± 0.0035	-0.041 ± 0.03	-0.04 ± 0.016	-0.08 ± 0.047	-0.148 ± 0.03	-0.0085 ± 0.03	0.026 ± 0.023	-0.013 ± 0.038	-0.0035 ± 0.021	0.027 ± 0.028	-0.014 ± 0.051
LPS:CD62E/E-Selectin	0.0135 ± 0.00071	-0.009 ± 0.013	0.019	0.004 ± 0.02	0.0025 ± 0.028	-0.002 ± 0.0085	-0.0065 ± 0.005	0.0085 ± 0.018	-0.0145 ± 0.015	-0.012 ± 0.0057	0.0155 ± 0.0035	0.0075 ± 0.015	0.0145 ± 0.013	-0.006	0.0045 ± 0.0064	-0.005 ± 0.013	-0.009 ± 0.014	-0.0045 ± 0.015	-0.016 ± 0.0057	0.0075 ± 0.011
LPS:CD69	-0.025 ± 0.045	-0.0395 ± 0.04	-0.132	0.002 ± 0.034	-0.0545 ± 0.053	-0.0455 ± 0.044	-0.069 ± 0.025	-0.04 ± 0.0042	-0.032 ± 0.018	-0.0305 ± 0.023	-0.0175 ± 0.00071	-0.046 ± 0.0014	-0.0345 ± 0.033	-0.073 ± 0.04	-0.002 ± 0.096	-0.0005 ± 0.076	0.0005 ± 0.079	-0.0345 ± 0.09	-0.016 ± 0.052	-0.0435 ± 0.061
LPS:CD106/VCAM-1	-0.017 ± 0.014	-0.0365 ± 0.026	-0.091	-0.004 ± 0.0014	-0.0315 ± 0.054	-0.029 ± 0.052	-0.08 ± 0.0057	-0.011 ± 0.017	-0.0125 ± 0.0021	-0.05 ± 0.0028	-0.0125 ± 0.03	-0.0215 ± 0.028	-0.0595 ± 0.028	-0.155 ± 0.025	0 ± 0.0042	-0.0075 ± 0.00071	-0.0065 ± 0.019	-0.0155 ± 0.0078	0.011 ± 0.0028	-0.0145 ± 0.029
LPS:CD141/Thrombomodulin	-0.0235 ± 0.0078	-0.0325 ± 0.022	-0.01	0.045 ± 0.016	0.0125 ± 0.0092	0.0335 ± 0.0035	-0.001 ± 0.016	-0.02 ± 0.013	-0.049 ± 0.0085	0.0065 ± 0.028	0.046 ± 0.061	0.04 ± 0.037	0.0455 ± 0.035	-0.0055 ± 0.067	0.001 ± 0.028	0.0005 ± 0.037	0.0005 ± 0.042	-0.0175 ± 0.022	-0.001 ± 0.013	0.0035 ± 0.036
LPS:CD142/Tissue Factor	-0.008 ± 0.037	0.0055 ± 0.033	-0.071	0.0325 ± 0.08	-0.026 ± 0.058	0.0025 ± 0.069	0.0325 ± 0.019	-0.023 ± 0.0014	-0.01 ± 0.0099	0.032 ± 0.033	0.042 ± 0.028	0.014 ± 0.0042	0.0375 ± 0.0064	-0.0085 ± 0.044	-0.008 ± 0.0014	-0.0175 ± 0.015	0.0065 ± 0.025	-0.014 ± 0.0014	-0.014 ± 0.011	-0.0015 ± 0.019
LPS:CXCL8/IL-8	-0.019 ± 0.027	-0.005 ± 0.016	-0.028	-0.011 ± 0.041	-0.058 ± 0.041	-0.0065 ± 0.042	0.016 ± 0.11	-0.021 ± 0.021	-0.0255 ± 0.011	-0.04 ± 0.0057	0.035 ± 0.025	0.0065 ± 0.013	0.0085 ± 0.0092	-0.049 ± 0.072	0.0055 ± 0.029	0.0005 ± 0.022	0.0025 ± 0.011	0.004 ± 0.0042	-0.0105 ± 0.0021	0.0165 ± 0.03
LPS:IL-1alpha	0.011 ± 0.024	-0.0095 ± 0.049	-0.003	0.0655 ± 0.088	-0.0155 ± 0.06	0.0405 ± 0.042	0.0445 ± 0.018	-0.0215 ± 0.043	-0.0045 ± 0.029	-0.024 ± 0.13	0.0405 ± 0.067	0.04 ± 0.064	0.0165 ± 0.0064	-0.0185 ± 0.00071	-0.006 ± 0.0042	-0.031 ± 0.02	0.0025 ± 0.046	-0.005 ± 0.0071	-0.0245 ± 0.0078	-0.0095 ± 0.029
LPS:M-CSF	-0.0045 ± 0.0078	-0.011 ± 0.03	-0.068	-0.006 ± 0.042	-0.017 ± 0.047	-0.0135 ± 0.019	-0.568 ± 0.03	-0.0385 ± 0.018	-0.052 ± 0.037	-0.183 ± 0.072	-0.011 ± 0.025	-0.024 ± 0.018	-0.0475 ± 0.056	-0.125 ± 0.0042	0.0025 ± 0.00071	0.0075 ± 0.0035	0.01 ± 0.038	-0.0335 ± 0.052	-0.0095 ± 0.016	0.0215 ± 0.033
LPS:SRB	-0.005 ± 0.0085	0.006 ± 0.011	-0.035	-0.003 ± 0.014	-0.011 ± 0.0014	-0.008 ± 0.011	0.006 ± 0.021	-0.01 ± 0.0042	-0.0195 ± 0.011	-0.08 ± 0.047	-0.002 ± 0.0099	-0.0105 ± 0.0078	-0.0215 ± 0.013	-0.039 ± 0.014	-0.008 ± 0.0014	-0.006 ± 0.0042	-0.0015 ± 0.015	-0.008 ± 0.0014	-0.0025 ± 0.0064	0.0065 ± 0.0064
LPS:sPGE2	-0.019 ± 0.031	-0.078 ± 0.031	-0.06	0.0325 ± 0.016	0.0275 ± 0.049	-0.052 ± 0.034	-0.022 ± 0.061	0.0605 ± 0.0021	0.0675 ± 0.011	0.17 ± 0.023	-0.0075 ± 0.033	0.037	-0.022 ± 0.018	-0.0985 ± 0.03	-0.0455 ± 0.066	-0.0115 ± 0.016	-0.011 ± 0.0057	-0.0115 ± 0.0092	-0.0165 ± 0.036	0.0205 ± 0.025
LPS:sTNF-alpha	-0.0145 ± 0.071	-0.095 ± 0.17	-0.08	-0.0185 ± 0.0092	-0.016 ± 0.018	-0.0375 ± 0.025	-0.0485 ± 0.021	0.0165 ± 0.088	0.008 ± 0.1	-0.004 ± 0.18	-0.0135 ± 0.022	-0.015 ± 0.0099	-0.035 ± 0.017	-0.233 ± 0.0078	-0.06 ± 0.028	-0.04 ± 0.042	-0.023 ± 0.073	-0.0235 ± 0.023	-0.0195 ± 0.019	-0.0115 ± 0.032
